Measurements taken from ChEMBL document CHEMBL4261633, “Butenolides from a marine-derived fungus Aspergillus terreus with antitumor activities against pancreatic ductal adenocarcinoma cells” (Bioorg Med Chem, 2018).
pIC50: −log10 of the molar value.

Columns and labels:
Format in all cases: functional, cell-based
HCC1806 = assay: Antiproliferative activity against human HCC1806 cells after 24 hrs by CCK8 assay; conditions: HCC1806, 24 h
BEAS-2B = assay: Antiproliferative activity against human BEAS2B cells after 24 hrs by CCK8 assay
HT-29 = assay: Antiproliferative activity against human HT-29 cells after 24 hrs by CCK8 assay; conditions: HT-29, 24 h
HepG2 = assay: Antiproliferative activity against human HepG2 cells after 24 hrs by CCK8 assay; conditions: HepG2, 24 h
PANC-1 = assay: Antiproliferative activity against human PANC1 cells after 24 hrs by CCK8 assay; conditions: PANC-1, 24 h

Compound	pIC50 (HCC1806)	pIC50 (HT-29)	pIC50 (HepG2)	pIC50 (PANC-1)	pIC50 (BEAS-2B)
COC(=O)[C@]1(Cc2ccc(O)c(CC=C(C)C)c2)OC(=O)C(O)=C1c1ccc(O)cc1	< 4.70	< 4.70	< 4.70	< 4.70	< 4.70
CC(C)(O)C1Cc2cc(C[C@H]3OC(=O)C(O)=C3c3ccc(O)cc3)ccc2O1 (stereo not given in full)	< 4.70	< 4.70	< 4.70	< 4.70	< 4.70
COC(=O)[C@]1(Cc2ccc(O)c(CC3OC3(C)C)c2)OC(=O)C(O)=C1c1ccc(O)cc1 (stereo not given in full)	< 4.70	< 4.70	< 4.70	< 4.70	< 4.70

Now from value to compound, other results behind:

pIC50 (HCC1806)	pIC50 (HT-29)	pIC50 (HepG2)	pIC50 (PANC-1)	Compound	pIC50 (BEAS-2B)
< 4.70	< 4.70	< 4.70	< 4.70	COC(=O)[C@]1(Cc2ccc3c(c2)C[C@H](O)C(C)(C)O3)OC(=O)C(O)=C1c1ccc(O)cc1 [BUTYROLACTONE V]	< 4.70
< 4.70	< 4.70	< 4.70	< 4.70	COC(=O)[C@]1(Cc2ccc3c(c2)CC(O)C(C)(C)O3)OC(=O)C(O)=C1c1ccccc1 (stereo not given in full)	< 4.70
< 4.70	< 4.70	< 4.70	< 4.70	COC(=O)[C@]1(Cc2ccc3c(c2)CCC(C)(C)O3)OC(=O)C(O)=C1c1ccc(O)cc1	< 4.70
